# Experimental data as given in patent publication US20240124456A1, “AZA-ERGOLINE DERIVATIVE AND PREPARATION METHOD THEREFOR AND APPLICATION THEREOF” (SHANGHAITECH UNIVERSITY, priority 2021, published 2024).
# Read-outs that look alike come from different tables or passages of the source.
# Legend:
# 5-HT2A receptor = 5-HT2A receptor (Homo sapiens (Human), UniProt P28223); test: Radioligand competition binding, affinity for 5-HT2A receptor ([3H]-ketanserin); settings: for binding selectivity, dopamine D2 receptor versus 5-HT2A receptor: Table 3 compared with Table 1; for Ki: [3H]-ketanserin, HEK-293T membranes
# Method: The affinity of the compounds of the present invention for the 5-HT2A receptors was determined by the method of radioligand competition experiment. In the first step, a cell membrane component containing specific 5-HT2A receptor was prepared. A 10 cm dish was used for transfection with 10 ng of the 5-HT2A receptor and 40 μL of PEI. […] A vacuum pump was used to suck off the culture medium, 3 mL of lysis buffer was added to each well, and the cells were placed in a 4° C. freezer for 10 minutes. After the cells were detached, the cells were transferred to a 15 mL centrifuge tube and centrifuged at 1500 rpm for 5 minutes at 4° C., and the supernatant was discarded. The cell pellet was transferred to a tissue homogenizer, and 3 mL of lysis buffer was added and fully ground until the cells were broken. Then, cell suspension was equally divided into several EP tubes, centrifuged at 4° C. and 12000 rpm for 5 min, and the supernatant was discarded. The precipitate was the cell membrane component containing the 5-HT2A receptor. […] First, a standard binding buffer was added to the cell membrane component containing the 5-HT2A receptor, and the cell membrane was disrupted and resuspended with an electric tissue homogenizer. 30 μL of membrane protein suspension was added to each well of a 96-well plate. Then, 30 μL of different drugs were added to the 96-well plate from left to right to ensure that the final drug concentrations were 10^−5 M, 10^−6 M, 10^−7 M, 10^−8 M, 10^−9 M and 0 M, with two replicates per treatment. Next, 30 μL [^3H]-ketanserin was added to each well of the 96-well plate. The plate was incubated for 2 hours at room temperature in the dark. Detection. The machine reading value reflected the amount of [^3H]-ketanserin bound on the membrane, and after further data processing, the affinity Ki value of different compounds for 5-HT2A receptor was obtained.
# [1] = Pharmacokinetic properties in C57 male mice, single dose (plasma, LC-MS/MS); assay type: in vivo; settings: for AUC(0-inf): read-out: Area under the drug-time curve AUC0-inf; for AUC(0-t): read-out: Area under the drug-time curve AUC0-t; for MRT: read-out: Mean residence time MRTPO; for half-life: read-out: Terminal elimination half-life t1/2 (converted); for bioavailability: read-out: Bioavailability F; for Cmax: read-out: Drug peak concentration Cmax; for Tmax: read-out: Time to peak tmax
# Method: 1. Test of the pharmacokinetic properties of compound (−)-I-10 administered to C57 male mice by single intragastric administration, intraperitoneal injection and intravenous injection
# Compound (−)-I-10 was administered in a single dose in C57 male mice, and then blood samples were collected at different time points, the concentration of the compound in mouse plasma was determined by LC-MS/MS and the relevant pharmacokinetic parameters were calculated to investigate the pharmacokinetics of the compound in the mice.
# 27 male C57 mice were provided by Suzhou Zhaoyan Experimental Animal Co., Ltd., and the experiment was carried out according to Table 4 below.
# 0.030 mL of blood was taken from each animal through the orbit each time and anticoagulated with EDTA-K2, and the collection time points were: 0, 5, 15, 30 min, 1, 2, 4, 6, 8, 24 h after administration of the test substance. Blood samples were placed on ice after collection, and the plasma was separated by centrifugation within 30 minutes (centrifugation conditions: 5000 rpm, 10 minutes, 4° C.) and stored at −80° C. until analysis.
# Data acquisition and control system software was Analyst 1.5.1 software (Applied Biosystem). The sample peak integration method of the spectrum was automatic integration; the ratio of the peak area of the sample to the peak area of the internal standard was used as an index, and regression was performed with the concentration of the sample. Regression method: linear regression with a weight factor of 1/X2. Pharmacokinetic parameters were analyzed using WinNonlin Professional v6.3 (Pharsight, USA) using non-compartmental models. Cmax was the measured maximum drug concentration in blood, the area under the drug concentration in blood-time curve AUC (0→t) was calculated by the trapezoidal method, and Tmax was the time to peak of the drug concentration in blood after administration. The experimental data were expressed by “mean=standard deviation” (Mean±[…], n≥3) or “mean” (Mean, n=2).
# C57B6 male mice = test: Old and novel object recognition, MK801 recognition impairment model; assay type: in vivo; settings: for Distinguishing index (DI): MK801 (0.3 mg/kg) 14 injections in 7 days, 7 days recovery
# Method: The experimental animals were C57B6 male mice, n=8 in each group. Firstly, mice were intraperitoneally injected with MK801 at 0.3 mg/kg twice a day for seven consecutive days to establish a recognition impairment model, and control mice were intraperitoneally injected with normal saline containing the same amount of DMSO. The mice then underwent a seven-day recovery in home cages. After the recovery period expired, the old and novel object distinguishing experiment was performed on the mice to determine the effect of the compounds on the recognition ability of the mice.
# Novel and old object recognition experiment: The experiment was carried out in a low-light environment. Before the experiment started, the mice were placed in the experimental field in advance and adapted to the environment for one hour in the low-light environment. After environmental adaptation, the mice were administered intraperitoneally. 30 minutes after the administration, the mice were put in an open field (diameter of the open field of 40 cm) in which two identical objects had been placed beforehand. The mice explored freely in the open field for 10 minutes, and then were removed from the open field and returned to the cage. After a one-hour interval, the mice returned to the open field, where an old object and a novel object were placed in advance in the same position in the open field. Again, the mice explored freely in the open field for 10 minutes. The distinguishing time of the mice for the old object and the novel object was recorded separately and the distinguishing index was calculated. The calculation method of the distinguishing index was (exploration time for novel object−exploration time for old object)/(exploration time for novel object+exploration time for old object). Object exploration by the mice was defined as sniffing, climbing, and direct contact with the object. Data statistics were carried out using Student-t-test, p<0.05 was *, p<0.01 was **, p<0.001 was ***, p<0.0001 was ****.
# [2] = mouse, plasma, intravenous injection 1 mg/kg
# [3] = mouse, plasma, ip, intraperitoneal injection 1 mg/kg
# [4] = mouse, plasma, oral administration 5 mg/kg
# 5-HT2A receptor, sequence (P28223 whole entry): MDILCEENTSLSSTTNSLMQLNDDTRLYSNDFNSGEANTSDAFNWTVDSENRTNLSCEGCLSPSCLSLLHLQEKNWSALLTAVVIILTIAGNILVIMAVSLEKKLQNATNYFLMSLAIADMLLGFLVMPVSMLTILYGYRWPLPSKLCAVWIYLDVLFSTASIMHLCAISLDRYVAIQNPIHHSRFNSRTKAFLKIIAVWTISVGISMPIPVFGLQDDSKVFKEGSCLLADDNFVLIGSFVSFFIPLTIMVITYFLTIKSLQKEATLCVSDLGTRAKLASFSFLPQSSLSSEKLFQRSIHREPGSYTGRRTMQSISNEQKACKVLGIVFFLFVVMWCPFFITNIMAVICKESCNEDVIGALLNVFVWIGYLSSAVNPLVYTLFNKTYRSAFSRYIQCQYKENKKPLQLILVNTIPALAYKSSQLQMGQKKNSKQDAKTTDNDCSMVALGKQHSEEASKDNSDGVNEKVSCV
compound,measurement,setting,value
"O=C1CCc2ccc(OCCCCN3CCN4c5cccc6[nH]cc(c56)CC4C3)cc2N1 (centres unmarked) [Compound I-1, 7-(4(4,6,6a,7,9,10-hexahydro-8H-pyrazino[1,2-a]pyrrolo[4,3,2-de]quinolin-8-yl)butoxy)-3,4-dihydroquinolin-2(1H)-one]",affinity for 5-HT2A receptor (in words),5-HT2A receptor,very weak affinity
same,"binding selectivity, dopamine D2 receptor versus 5-HT2A receptor",5-HT2A receptor,more than 100 times
same,Ki,5-HT2A receptor,3.64 µM
CN(C)C(=O)N[C@H]1CC[C@H](CCN2CCN3c4cccc5[nH]cc(c45)C[C@H]3C2)CC1 [(−)-I-10],pharmacokinetic properties (in words),[1],good pharmacokinetic properties
same,Terminal elimination rate Kel,[1]; intraperitoneal injection 1 mg/kg,0.886 h⁻¹
same,Terminal elimination rate Kel,[1]; intravenous injection 1 mg/kg,0.805 h⁻¹
same,Vd,"[1]; mouse, plasma, intravenous injection 1 mg/kg, read-out: Apparent volume of distribution Vdss",4.86 L/kg
same,AUC(0-inf),[1]; [2],215 ng·h/mL
same,AUC(0-t),[1]; [2],211 ng·h/mL
same,clearance,"[1]; mouse, plasma, intravenous injection 1 mg/kg, read-out: Clearance CL",77.6 mL/min/kg
same,MRT,[1]; [2],62.4 min
same,half-life,[1]; [2],51.7 min
same,AUC(0-inf),[1]; [3],175 ng·h/mL
same,AUC(0-t),[1]; [3],172 ng·h/mL
same,bioavailability,[1]; [3],81.4%
same,Cmax,[1]; [3],271 ng/mL
same,MRT,[1]; [3],46.2 min
same,half-life,[1]; [3],46.9 min
same,Tmax,[1]; [3],5 min
same,AUC(0-inf),[1]; [4],596 ng·h/mL
same,AUC(0-t),[1]; [4],591 ng·h/mL
same,bioavailability,[1]; [4],55.9%
same,Cmax,[1]; [4],558 ng/mL
same,MRT,[1]; [4],89.4 min
same,half-life,[1]; [4],69 min
same,Tmax,[1]; [4],5 min
same,Terminal elimination rate Kel,[1]; oral administration 5 mg/kg,0.604 h⁻¹
same,improvement of MK801-induced recognition impairment (in words),C57B6 male mice; 0.1 mg/kg and 0.025 mg/kg,significantly improve
same,Distinguishing index (DI),C57B6 male mice; 0.00625 mg/kg,0.05971 ± 0.03658
same,Distinguishing index (DI),C57B6 male mice; 0.025 mg/kg,0.3320 ± 0.06367
same,Distinguishing index (DI),C57B6 male mice; 0.1 mg/kg,0.2789 ± 0.04036
same,affinity for 5-HT2A receptor (in words),5-HT2A receptor,very weak affinity
same,"binding selectivity, dopamine D2 receptor versus 5-HT2A receptor",5-HT2A receptor,more than 100 times
same,Ki,5-HT2A receptor,2.63 µM
"O=c1ccc2ccc(OCCCCN3CCN4c5cccc6[nH]cc(c56)CC4C3)cc2[nH]1 (racemic) [Compound I-2, 7-(4(4,6,6a,7,9,10-hexahydro-8H-pyrazino[1,2-a]pyrrolo[4,3,2-de]quinolin-8-yl)butoxy)quinolin-2(1H)-one]","binding selectivity, dopamine D2 receptor versus 5-HT2A receptor",5-HT2A receptor,more than 100 times
same,Ki,5-HT2A receptor,0.907 µM
CN(C)C(=O)N[C@H]1CC[C@H](CCN2CCN3c4cccc5[nH]cc(c45)C[C@@H]3C2)CC1 [(+)-I-10],affinity for 5-HT2A receptor (in words),5-HT2A receptor,very weak affinity
same,Ki,5-HT2A receptor,2.48 µM
